Five molecules from patent US20260070945A1, “MACROCYCLIC IMMUNOMODULATORS” (Bristol-Myers Squibb Company, priority 2022, published 2026) can be followed below.

*1 amine or outer side, *2 acyl side, *3 side chain or, on linkers, in order; H or OH if unused. Where a SMILES comes first, the peptide text is derived from it. Bridges are numbered along the chain shown (N, C = ends). [ ]: non-standard residue; d: D form. The star is where a group is joined. ξ: configuration not given here. Phe(4-COOH) = N[C@@H](Cc1ccc(C(=O)O)cc1)C(=O)O; Bip = N[C@@H](Cc1ccc(-c2ccccc2)cc1)C(=O)O; Phe(3-Me) = Cc1cccc(C[C@H](N)C(=O)O)c1; βAsp = O=C(O)[C@H](CC(=O)[*:2])N[*:1]; NMeAEEA = CN(CCOCCOCC(=O)[*:2])[*:1]; hArg = N=C(N)NCCCC[C@H](N)C(=O)O; Cha = N[C@@H](CC1CCCCC1)C(=O)O; Cit = NC(=O)NCCC[C@H](N)C(=O)O; Thr(3ξ) = CC(O)[C@H](N)C(=O)O; Carboxymethyl = O=C(O)C*; NMeA = CN[C@@H](C)C(=O)O; Aun = NCCCCCCCCCCC(=O)O; Dab = NCC[C@H](N)C(=O)O; AEEA = NCCOCCOCC(=O)O

In this assay the target is T1, PD-1/PD-L1 interaction (PE-labeled human PD-L1-Ig binding to Jurkat cell line over-expressing human PD-1) (Homo sapiens, UniProt Q15116).
T1 construct: expressed in transfected cells; host or cells: Jurkat
T1 sequence (Q15116 25-288): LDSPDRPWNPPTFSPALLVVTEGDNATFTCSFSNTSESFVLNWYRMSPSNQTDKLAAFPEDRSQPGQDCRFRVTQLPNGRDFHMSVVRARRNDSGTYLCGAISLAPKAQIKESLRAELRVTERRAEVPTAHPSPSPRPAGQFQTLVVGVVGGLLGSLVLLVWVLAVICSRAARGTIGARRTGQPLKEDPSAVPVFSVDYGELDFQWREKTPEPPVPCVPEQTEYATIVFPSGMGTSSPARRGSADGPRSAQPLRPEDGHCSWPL
Kind of assay: Jurkat-PD-1 Cell Binding High-Content Screening Assay (CBA). Conditions: Jurkat-hPD-1 cells, PE-labeled PD-L1-Ig 20 nM final; read-out: Jurkat HPD1 PDL1 IC50. The method, boiled down: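 High-content imaging read-out of PE-PD-L1-Ig binding (20 nM final, 1 h) to Jurkat-hPD-1 cells, after 2 h compound exposure at 37 °C in DMEM with 10% FCS. Nuclei counterstained with Hoechst 33342 after paraformaldehyde fixation.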
One may read the IC50 as the concentration needed to halve the response being measured. Turning to `Cc1cccc(C[C@@H]2NC(=O)[C@H](CC(=O)O)NC(=O)[C@H](Cc3ccc(OCC(=O)O)cc3)NC(=O)[C@H](C(C)O)NC(=O)CSC[C@@H](C(=O)N[C@@H](CCN)C(=O)NCCOCCOCC(=O)NCCCCCCCCCCC(=O)O)NC(=O)[C@H](CC(=O)O)NC(=O)[C@H](C(C)C)NC(=O)[C@H](CC3CCCCC3)NC(=O)[C@H](CCN)NC(=O)[C@@H](CC(C)C)NC(=O)[C@H](C)N(C)C(=O)[C@H](Cc3ccc(OCC(=O)O)cc3)NC(=O)[C@H](Cc3ccc(-c4ccccc4)cc3)NC(=O)[C@H](Cc3ccc(C(=O)O)cc3)NC2=O)c1` (stereo partly drawn) [Example 2479] ({CH2CO}-[Thr(3ξ)]Y(Carboxymethyl)D[Phe(3-Me)][Phe(4-COOH)][Bip]Y(Carboxymethyl)[NMeA][dL][Dab][Cha]VDC[Dab][AEEA][Aun]-OH; thioether N-14), the IC50 came to 19.6 nM.
Then `Cc1cccc(C[C@@H]2NC(=O)[C@H](CC(=O)O)NC(=O)[C@H](Cc3ccc(OCC(=O)O)cc3)NC(=O)[C@H](CCCNC(=N)N)NC(=O)CSC[C@@H](C(=O)N(C)CCOCCOCC(=O)NCCCCCCCCCCC(=O)O)NC(=O)[C@H](C(C)C)NC(=O)[C@H](C(C)C)NC(=O)[C@H](CC3CCCCC3)NC(=O)[C@H](CCN)NC(=O)[C@@H](CC(C)C)NC(=O)[C@H](C)N(C)C(=O)[C@H](CCCNC(N)=O)NC(=O)[C@H](Cc3ccc(-c4ccccc4)cc3)NC(=O)[C@H](C(C)C)NC2=O)c1` [Example 2356] ({CH2CO}-RY(Carboxymethyl)D[Phe(3-Me)]V[Bip][Cit][NMeA][dL][Dab][Cha]VVC[NMeAEEA][Aun]-OH; thioether N-14), with 34.7 nM; and `Cc1cccc(C[C@@H]2NC(=O)[C@H](CC(=O)O)NC(=O)[C@H](Cc3ccc(OCC(=O)O)cc3)NC(=O)[C@H](CCCNC(=N)N)NC(=O)CSC[C@@H](C(=O)N[C@@H](CCN)C(=O)NCCCCCCCCCCC(=O)O)NC(=O)[C@H](C(C)O)NC(=O)[C@H](C(C)C)NC(=O)[C@H](CC3CCCCC3)NC(=O)[C@H](CCN)NC(=O)[C@@H](CC(C)C)NC(=O)[C@H](C)N(C)C(=O)[C@H](Cc3ccc(OCC(=O)O)cc3)NC(=O)[C@H](Cc3ccc(-c4ccccc4)cc3)NC(=O)[C@H](C(C)C)NC2=O)c1` (stereo partly drawn) [Example 2308] ({CH2CO}-RY(Carboxymethyl)D[Phe(3-Me)]V[Bip]Y(Carboxymethyl)[NMeA][dL][Dab][Cha]V[Thr(3ξ)]C[Dab][Aun]-OH; thioether N-14), with 21.1 nM; and `Cc1cccc(C[C@@H]2NC(=O)[C@H](CC(=O)O)NC(=O)[C@H](Cc3ccc(C(=O)O)cc3)NC(=O)[C@H](Cc3ccc(OCC(=O)O)cc3)NC(=O)CSC[C@@H](C(=O)NCC(=O)N[C@@H](CC(=O)NCCOCCOCC(=O)N[C@@H](CC(=O)O)C(=O)NCCOCCOCC(=O)NCCCCCCCCCCC(=O)O)C(=O)O)NC(=O)[C@H](CO)NC(=O)[C@H](C(C)C)NC(=O)[C@H](CC(C)C)NC(=O)[C@H](CC(N)=O)NC(=O)[C@@H](CC(C)C)NC(=O)[C@H](C)N(C)C(=O)[C@H](C(C)C)NC(=O)[C@H](Cc3ccc(-c4ccccc4)cc3)NC(=O)[C@H](CC(C)C)NC2=O)c1` [Example 1024] ({CH2CO}-Y(Carboxymethyl)[Phe(4-COOH)]D[Phe(3-Me)]L[Bip]V[NMeA][dL]NLVSCG[βAsp][AEEA]D[AEEA][Aun]-OH; thioether N-14), with 87.5 nM.
As for `CC(C)C[C@@H]1NC(=O)[C@H](Cc2c[nH]c3ccccc23)NC(=O)[C@H](CC(=O)O)NC(=O)[C@H](Cc2c[nH]cn2)NC(=O)[C@H](CCCCNC(=N)N)NC(=O)CSC[C@@H](C(=O)N[C@@H](CCN)C(=O)NCCCCCCCCCCC(=O)O)NC(=O)[C@H](CCCCN)NC(=O)[C@H](C(C)C)NC(=O)[C@H](CC2CCCCC2)NC(=O)[C@H](CCN)NC(=O)[C@@H](CC(C)C)NC(=O)[C@H](C)N(C)C(=O)[C@H](C(C)C)NC(=O)[C@H](Cc2ccc(-c3ccccc3)cc2)NC1=O` [Example 2194] ({CH2CO}-[hArg]HDWL[Bip]V[NMeA][dL][Dab][Cha]VKC[Dab][Aun]-OH; thioether N-14), the concentration for half-maximal inhibition (IC50) is 39.6 nM.
